Test results published in patent US20170217931A1, “COMPOUNDS FOR USE IN ANTHELMINTHIC TREATMENT” (Bayer Animal Health GMBH, priority 2014, published 2017).
Like-named read-outs stand apart in the source and are kept apart here.

Legend:
[1] = Log P by HPLC on reversed phase columns, acidic range (EEC directive 79/831 Annex V.A8); assay type: physicochemical
Protocol: Measurement of Log P values was performed according to EEC directive 79/831 Annex V.A8 by HPLC (High Performance Liquid Chromatography) on reversed phase columns with the following methods: • [^a] Log P value is determined by measurement of LC-UV, in an acidic range, with 0.1% formic acid in water and acetonitrile as eluent (linear gradient from 10% acetonitrile to 95% acetonitrile). • [^b] Log P value is determined by measurement of LC-UV, in a neutral range, with 0.001 molar ammonium acetate solution in water and acetonitrile as eluent (linear gradient from 10% acetonitrile to 95% acetonitrile).
Calibration was done with straight-chain alkan-2-ones (with 3 to 16 carbon atoms) with known Log P values (measurement of Log P values using retention times with linear interpolation between successive alkanones). Lambda-max-values were determined using UV-spectra from 200 nm to 400 nm and the peak values of the chromatographic signals.

[2] = system: Cooperia curticei; assay: microbe, parasite or virus in culture; assay type: cell-based; conditions: 120 h, read-out: activity (larval mortality)
Protocol: (§1) To produce a suitable preparation of active compound, 10 mg of active compound are dissolved in 0.5 ml dimethyl sulfoxide, and the concentrate is diluted with “Ringer's solution” to the desired concentration.
Approximately 40 nematode larvae (Cooperia curticei) are transferred into a test tube containing the compound solution. After 5 days percentage of larval mortality is recorded. 100% efficacy means all larvae are killed; 0% efficacy means no larvae are killed.

[3] = system: Haemonchus contortus; assay: microbe, parasite or virus in culture; assay type: cell-based; conditions: 120 h, read-out: activity (larval mortality)
Protocol: as §1
Approximately 40 larvae of the red stomach worm (Haemonchus contortus) are transferred into a test tube containing compound solution. After 5 days percentage of larval mortality are recorded. 100% efficacy means all larvae are killed, 0% efficacy means no larvae are killed.

[4] = reversed phase HPLC columns; LC-UV, acidic range, 0.1% formic acid in water and acetonitrile; read-out: logP a) (HCOOH)
[5] = 4 ppm, after 5 days, Cooperia curticei larvae
[6] = 20 ppm, after 5 days, Cooperia curticei larvae
[7] = 20 ppm, after 5 days, Haemonchus contortus larvae

chromatographic logP [1, 4]	SMILES	chromatographic logP ([1]; LC-UV, acidic range, 0.1% formic acid in water and acetonitrile; read-out: logP a) (HCOOH))	mortality at 4 ppm ([2]; Cooperia curticei)	mortality at 20 ppm ([2]; Cooperia curticei)	mortality at 4 ppm [2, 5]	mortality at 20 ppm [2, 6]	mortality at 20 ppm [3, 7]	chromatographic logP [1]	mortality at 20 ppm ([3]; Haemonchus contortus)
	O=C(NCC(F)(F)c1ncc(-c2ccoc2)cc1Cl)c1ccccc1C(F)(F)F [Example 1]	3.21	≥ 90%	100%					
3.53	Cc1occc1-c1cnc(C(F)(F)CNC(=O)c2ccccc2C(F)(F)F)c(Cl)c1 [Example 2]				≥ 90%	100%	90%		
	O=C(NCC(F)(F)c1ncc(-n2cc(C(F)(F)F)cn2)cc1Cl)c1ccccc1C(F)(F)F [Example 3, N-[2-[3-chloro-5-[4-(trifluoromethyl)pyrazol-1-yl]-2-pyridyl]-2,2-difluoro-ethyl]-2-(trifluoromethyl)benzamide]		≥ 90%	100%				3.62	100%
3.22	Cn1ccc(-c2cnc(C(F)(F)CNC(=O)c3ccccc3C(F)(F)F)c(Cl)c2)c1 [Example 4]				≥ 90%				
3.12	O=C(NCC(F)(F)c1ncc(-n2cc(F)cn2)cc1Cl)c1ccccc1C(F)(F)F [Example 5]				≥ 90%	100%	90%		
	Cn1c(C(F)(F)F)nn(-c2cnc(C(F)(F)CNC(=O)c3ccccc3C(F)(F)F)c(Cl)c2)c1=O [Example 6]		≥ 90%	100%				3.32	100%
2.88	O=C(NCC(F)(F)c1ncc(-n2cc(F)cn2)cc1Cl)c1nccnc1C(F)(F)F [Example 7]								
	O=C(NCC(F)(F)c1ncc(-n2ccc(C(F)(F)F)n2)cc1Cl)c1nccnc1C(F)(F)F [Example 8]		≥ 90%	100%				3.49	
2.7	O=C(NCC(F)(F)c1ncc(-n2cc(F)cn2)cc1Cl)c1cccnc1C(F)(F)F [Example 9]				≥ 90%	100%			
3.43	O=C(NCC(F)(F)c1ncc(-n2cc(C(F)(F)F)cn2)cc1Cl)c1nccnc1C(F)(F)F [Example 10]				≥ 90%	100%	100%		
	O=C(NCC(F)(F)c1ncc(-n2ccc(C(F)(F)F)n2)cc1Cl)c1ccccc1C(F)(F)F [Example 11]		≥ 90%	100%				3.63	100%
	O=C(NCC(F)(F)c1ncc(-n2cc(Cl)cn2)cc1Cl)c1ccccc1C(F)(F)F [Example 12]		≥ 90%	100%				3.5	100%
3.27	O=C(NCC(F)(F)c1ncc(-n2ccc(C(F)(F)F)n2)cc1Cl)c1cccnc1C(F)(F)F [Example 13]				≥ 90%	100%			
3.24	O=C(NCC(F)(F)c1ncc(-n2cc(C(F)(F)F)cn2)cc1Cl)c1cccnc1C(F)(F)F [Example 14]				≥ 90%	100%	100%		
3.1	O=C(NCC(F)(F)c1ncc(-c2cnn(CC(F)(F)F)c2)cc1Cl)c1ccccc1C(F)(F)F [Example 15]				≥ 90%	100%			
2.66	O=C(NCC(F)(F)c1ncc(-c2cnn(CC(F)(F)F)c2)cc1Cl)c1cccnc1C(F)(F)F [Example 16]					100%			
2.85	O=C(NCC(F)(F)c1ncc(-c2cnn(CC(F)(F)F)c2)cc1Cl)c1nccnc1C(F)(F)F [Example 17]					100%			
3.07	O=C(NCC(F)(F)c1ncc(-n2cc(Cl)cn2)cc1Cl)c1cccnc1C(F)(F)F [Example 18]				≥ 90%	100%	100%		
